“And” between values parts separate entries of the source, which are not always exact repeats. Identical values can stand only once.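 Tested at 5 concentrations; 48 h exposure; 96-well plates; endpoints linearly interpolated, else capped at highest concentration. The concentration for 50% growth inhibition is given as GI50.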 The source made the active and inactive calls. No stated cut-off is given here; in the data, active = GI50 up to about 1.1 µM and inactive = higher.
Experiments:
Assay in all cases: growth of human tumour cells (NCI), 48 h
XF498 = system: XF498
KM-20L2 = system: KM-20L2
M19-MEL = system: M19-MEL
SNB-78 = system: SNB-78
RXF 631 = system: RXF 631
HOP-18 = system: HOP-18
DMS-114 = system: DMS-114
MDA-N = system: MDA-N
BT-549 = system: BT-549

Compound	GI50 (XF498)	GI50 (KM-20L2)	GI50 (M19-MEL)	GI50 (SNB-78)	GI50 (RXF 631)	GI50 (HOP-18)	GI50 (DMS-114)	GI50 (MDA-N)	GI50 (BT-549)
CC(C)(c1ccccc1)c1ccc(Oc2ccc3c(c2)-c2nc-3nc3[nH]c(nc4nc(nc5[nH]c(n2)c2ccc(Oc6ccc(C(C)(C)c7ccccc7)cc6)cc52)-c2cc(Oc5ccc(C(C)(C)c6ccccc6)cc5)ccc2-4)c2ccc(Oc4ccc(C(C)(C)c5ccccc5)cc4)cc32)cc1	78 µM (inactive)	> 100 µM (inactive)	> 100 µM (inactive)	> 100 µM (inactive)	> 100 µM (inactive)				
O=C(/C=C/c1ccccc1O)c1ccccc1Cl	40.5 µM (inactive)	> 100 µM (inactive)	64.6 µM (inactive)	47.2 µM (inactive)	52.7 µM (inactive)	49.4 µM (inactive)	21.3 µM (inactive)		
CCc1cccc(C(C)CC)c1/N=C(/NC(=O)c1ccccc1C(=O)N/C(=N/c1c(CC)cccc1C(C)CC)SC)SC (stereo not given)	48.4 µM (inactive)	28.4 µM (inactive)	51.4 µM (inactive)	21.5 µM (inactive)	51.2 µM (inactive)	26.8 µM (inactive)			
CCOc1ccccc1NC(=O)C(=O)c1c(O)c2ccc(O)cc2oc1=O		> 100 µM (inactive)	> 100 µM (inactive)	> 100 µM (inactive)	> 100 µM (inactive)	> 100 µM (inactive)			
COc1c(CC(C)=O)ccc2c1C(=O)c1ccc(C=O)c(OC(C)=O)c1C2=O		14.9 µM (inactive)		18.2 µM (inactive)	20.6 µM (inactive)	22.1 µM (inactive)	12.8 µM (inactive)		
CC(=O)N1c2ccccc2N(C(C)=O)C1c1ccc(C2N(C(C)=O)c3ccccc3N2C(C)=O)[nH]1	> 100 µM (inactive)	> 100 µM (inactive)	> 100 µM (inactive)		> 100 µM (inactive)		> 100 µM (inactive)		
Cc1ccc(S(=O)(=O)N/N=C/c2oc(-c3ccncc3)c(-c3ccncc3)c2[N+](=O)[O-])cc1	> 100 µM (inactive)	> 100 µM (inactive)	> 100 µM (inactive)	> 100 µM (inactive)	> 100 µM (inactive)	> 100 µM (inactive)			
CCN1C(=O)C(=CN)C(=O)N(CC)C1=O		> 100 µM (inactive)	> 100 µM (inactive)	> 100 µM (inactive)	> 100 µM (inactive)	24.7 µM (inactive)	> 100 µM (inactive)		
Clc1ccc(OCc2nnc3n2N=C(c2ccc(Br)cc2)CS3)cc1	4.24 µM (inactive)		23.6 µM (inactive)	21.5 µM (inactive)	> 10 µM (inactive)		13.1 µM (inactive)		
CCOc1ccccc1NC(=O)C(C#N)C1=C(Cl)C(=O)c2ccccc2C1=O (stereo not given)	2.29 µM (inactive)	1.93 µM (inactive)	0.177 µM (active)	3.32 µM (inactive)	2.09 µM (inactive)	1.5 µM (inactive)	0.743 µM (active)		
CN1C(OCc2ccccc2)c2c(ccc3c2OCO3)C2C=Cc3cc4c(cc3C21)OCO4 (stereo not given)		1.59 µM (inactive)	0.19 µM (active)	0.598 µM (active)	0.841 µM (active)	1.33 µM (inactive)	0.305 µM (active)		
COC(=O)CCC(NC(=S)N/N=C(\C)c1ccccn1)C(=O)OC (stereo not given)	> 100 µM (inactive)	32.4 µM (inactive)	37.2 µM (inactive)		34.1 µM (inactive)	41.4 µM (inactive)	20.6 µM (inactive)		
CCCCC(=O)OCC(=O)[C@]1(O)Cc2c(O)c3c(c(O)c2[C@@H](OC2CC(NC(=O)C(F)(F)F)C(O)C(C)O2)C1)C(=O)c1c(OC)cccc1C3=O (stereo not given in full)	0.161 µM (active)	2.19 µM (inactive)	0.331 µM (active)		0.682 µM (active)		0.268 µM (active)	1.15 µM (inactive)	2.11 µM (inactive)
C=CCO[C@H]1CC[C@@]2(C)C(CC[C@]3(C)C2CC=C2[C@@H]4[C@@H](C)C(C)CC[C@]4(C(=O)O)CCC23C)C1(C)C (stereo not given in full)	7.1 µM (inactive)	17.3 µM (inactive)	17.7 µM (inactive)	17.6 µM (inactive)	13.7 µM (inactive)	22 µM (inactive)	16.7 µM (inactive)		
COc1cccc2c1C(=O)c1c(O)c3c(c(O)c1C2=O)C[C@@](O)(C(=O)CO)C[C@@H]3OC1CC(N)C(O)C(C)O1 (stereo not given in full)		0.879 µM (active)	0.2 µM (active)	0.457 µM (active)	0.912 µM (active)	0.478 µM (active)	0.0975 µM (active)		438 nM (active) and 255 nM (active)

— ChEMBL document CHEMBL1201862, “PubChem BioAssay data set” (2004)
